This is an account of results in patent US9499495B2, “Quinazolines and azaquinazolines as dual inhibitors of RAS/RAF/MEK/ERK and PI3K/AKT/PTEN/mTOR pathways” (Asana Biosciences, LLC, priority 2013, dated 2016).

One test addresses T1, B-RAFV600E (Homo sapiens, UniProt P15056, V600E).
T1 construct: purchased Millipore, USA 14-557
In words: B-RAFV600E radiometric assay. It is filed as biochemical. To be noted: read-out: Kinase assay B-Raf. As for the experimental part: Compound inhibition for B-RAFV600E was determined through radiometric assay using a BRAF enzyme (Catalog No. 14-557, Millipore, USA) and MEK-K97M protein as a substrate (Catalog No. 0785-0000-1, ProqQinase GmbH, Germany). The B-RAF kinase catalyzes the phosphorylation of MEK protein in the presence of gamma ATP (PLC-101, Jonaki, CCMB, Hyderabad), cold ATP and Mg^2+.
The phosphorylated protein product is detected by the scintillation counter Topcount® machine (Perkin Elmer). This assay has been adapted from the method previously reported by Yeh et al. (2007, Clinical Cancer Research; 13, 1576-1583). The assay measures the B-RAF mediated transfer of 32P from the gamma position of radiolabeled ATP onto MEK1-KD. The labeled phosphorylated protein was measured in MicroBeta® Trilux Counter (Perkin Elmer). The assay was validated with reference compounds RAF1 Kinase Inhibitor I and ZM 336372 inhibitor which are reported to be inhibitors of B-RAF enzyme (Lackey, 2000, Medicinal Chemistry Letters; 10(3):223-226; Kupcho, “Fluorescent High throughput kinase cascade assays for inhibitor characterization, RAF-MEK-ERK pathway, www.invitrogen.com, and Hall-Jackson, 1999, Chemical Biology; 6(8):559-568). B-RAF enzyme mixture (13 μL) was added to compound wells containing 2 μL of the NCE in 1% DMSO and incubated for 45 min at rt on a shaking incubator at 300 rpm. MEK-K97M (0.5 μg) and cold ATP to a final concentration of 5 μM, and hot ATP 0.1 μCi in a volume of 10 μL was added to each well and incubated for 2 h at rt on a shaking incubator at 300 rpm. The reaction was stopped by addition of […] (13 μL) containing ATP (1 mM: 495 μL 1N HCl and 5 μL 100 mM ATP). Aliquot (30 μL) was then transferred to the center of a 2 cm×2 cm P81 paper. P81 paper was washed 8×5 min each with ortho-phosphoric acid (0.5%). P81 papers are washed twice with acetone for […] Assay squares were allowed to dry for […] at 37° C. P81 paper are transferred to Optiplate™ (Perkin Elmer) and counted in a Topcount® counter (Perkin Elmer). Data was plotted against the compound concentration to generate dose-response curves and IC50 values were determined using a sigmoidal dose response curve fit GraphPad Prism® v5 software.

The target in another test is T2, mTOR kinase (Homo sapiens, UniProt P42345).
T2 construct: purchased Millipore, US
T2 sequence (P42345 1362-2549 limits assumed): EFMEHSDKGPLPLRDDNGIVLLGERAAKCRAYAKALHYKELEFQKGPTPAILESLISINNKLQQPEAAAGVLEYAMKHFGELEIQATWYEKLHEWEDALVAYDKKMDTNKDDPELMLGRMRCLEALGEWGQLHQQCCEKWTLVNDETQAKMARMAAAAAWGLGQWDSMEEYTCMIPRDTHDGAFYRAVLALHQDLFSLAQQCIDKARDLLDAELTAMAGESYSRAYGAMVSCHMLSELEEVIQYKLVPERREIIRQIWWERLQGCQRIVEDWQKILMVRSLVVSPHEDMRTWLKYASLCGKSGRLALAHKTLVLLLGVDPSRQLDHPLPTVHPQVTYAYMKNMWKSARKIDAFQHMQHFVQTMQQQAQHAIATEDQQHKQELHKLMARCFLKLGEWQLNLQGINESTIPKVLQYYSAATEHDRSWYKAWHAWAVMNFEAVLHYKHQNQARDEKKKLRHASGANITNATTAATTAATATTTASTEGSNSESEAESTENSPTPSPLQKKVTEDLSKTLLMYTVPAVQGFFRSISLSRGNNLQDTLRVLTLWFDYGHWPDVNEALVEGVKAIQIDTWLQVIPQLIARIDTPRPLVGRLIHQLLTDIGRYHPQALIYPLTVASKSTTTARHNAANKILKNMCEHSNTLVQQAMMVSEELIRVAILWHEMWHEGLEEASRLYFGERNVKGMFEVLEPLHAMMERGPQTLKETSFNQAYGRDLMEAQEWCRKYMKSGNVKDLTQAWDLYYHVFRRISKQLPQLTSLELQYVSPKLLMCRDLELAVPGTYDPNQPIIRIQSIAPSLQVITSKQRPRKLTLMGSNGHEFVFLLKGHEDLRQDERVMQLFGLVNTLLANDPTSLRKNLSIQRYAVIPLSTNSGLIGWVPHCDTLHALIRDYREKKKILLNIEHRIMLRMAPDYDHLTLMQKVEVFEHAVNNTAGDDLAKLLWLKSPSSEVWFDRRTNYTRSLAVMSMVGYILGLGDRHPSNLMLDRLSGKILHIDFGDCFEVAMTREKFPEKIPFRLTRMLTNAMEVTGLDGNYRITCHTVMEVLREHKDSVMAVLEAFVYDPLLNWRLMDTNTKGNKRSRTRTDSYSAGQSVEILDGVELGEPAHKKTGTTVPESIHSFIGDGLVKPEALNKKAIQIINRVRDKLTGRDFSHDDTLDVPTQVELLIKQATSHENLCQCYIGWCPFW
In words: mTOR kinase TR-FRET assay. It is filed as biochemical. As for the experimental part:
Compound inhibition for mTOR kinase was determined by homogeneous TR-FRET assay using ULight-p70 S6K (Thr 389) peptide as substrate. mTOR enzyme (Millipore, US; […]) was used in the assay. The reaction buffer was HEPES (50 mM, pH 7.5), EGTA (1 mM), and MnCl2 (3 mM). Test compound was pre-incubated with mTOR for 30 min followed by 50 nM ULight-p70 S6K (Thr 389) peptide along with ATP (20 μM).
After incubating the reaction mixture for 30 min, Eu-labeled anti-phospho-substrate antibody (1 nM, Perkin Elmer, USA) was added. Fluorescence emission at […] was measured upon excitation at 340 nm. The compound dilution was carried out in 100% DMSO followed by a buffer dilution. The kinase reaction was incubated for 1 h at rt followed by the addition of substrate-ATP mix and incubated at rt for 1 h. The reaction was terminated by the addition of EDTA followed by the addition of detection mix. IC50 values were determined using a sigmoidal dose response curve fit, GraphPad Prism® v5 software.

The test system of a further test is pERK in A375 cells. The test can be described thus: In Cell Western (ICW) assay, pERK in A375 cells. In kind it is cell-based. As to conditions: Homo sapiens, A-375, 3 h treatment. As for the experimental part: Cell lines A375, A2058 and RKO obtained from the ATCC as provided above, were grown, and after attaining ˜80% confluency were trypsinized, centrifuged and resuspended in fresh media. The cells were seeded at the specified density (20,000 to 50,000) in a 96-well format black-well clear bottom plate (Corning) and incubated overnight at 37° C. in a 5% CO2 incubator. The next day, compound dilutions of test compounds were prepared in 100% DMSO followed by dilutions in respective media. Treatment of test compounds was performed for 3 h at 37° C. in 5% CO2 incubator. Following 3 h drug treatment, the conditional media was discarded and the cells were washed once with cPBS (PBS containing 0.1% magnesium chloride hexahydrate and 0.1% anhydrous calcium chloride) and fixed with 4% paraformaldehyde in cPBS for 1 h at rt. After fixing, the cells were given three washes using cPBST (cPBS containing 0.1% Triton™ X-100 reagent) and then blocked using blocking solution (5% skimmed milk powder or 5% BSA prepared in cPBST) for 2 h at rt with shaking at 300 rpm. The cells were again washed thrice with cPBST and incubated with primary antibody phospho-p44/42 MAPK(Erk1/2)(Thr202/204) antibody (Cell Signaling, Catalog # 9101L), phospho S6 ribosomal protein (Cell Signaling, Catalog #4858L), phospho AKT (Thr 308) (Cell Signaling, Catalog #9275) or phospho AKT (Ser 473) (Cell Signaling, Catalog #4060L) in specified dilutions (1:500-1:2500), prepared in respective blocking solutions, in a racker overnight at 4° C. The next day, the cells were washed with 1× Delfia® wash buffer (4×1 wash) and incubated with secondary antibody (Delfia®-Eu-N1 labeled anti-rabbit antibody; PerkinElmer, Catalog #AD0105; dilutions: 1:2000 to 1:6000 in Delfia® assay buffer (PerkinElmer, Catalog #1244-111)) for 2 h at rt in the dark at 300 rpm. The cells were then given four washes with 1× Delfia® wash buffer and incubated with Wallac Delfia® Enhancement solution (100 μL; PerkinElmer, Catalog #1244-105) for 20 min at rt in the dark at 300 rpm. The fluorescence emission was then read at 615 nm with an excitation wavelength of 340 nm using a Victor V5 Fluorometer (Perkin Elmer, US). The cells were then washed once with 1×cPBS and incubated with 100 μL of 0.5 mg/mL of Hoechst 33258 dye prepared in cPBS and read at 460 nm with 355 nm excitation, thereby evaluating the correction factor.
The % inhibition for the test compounds of formula (I) (new chemical entities (NCEs)) was calculated keeping DMSO control as 0% and the IC50 values were determined using sigmoidal dose response curve fit in GraphPad Prism® v5 software.

For another test, the system named is A375 cells. In words: XTT assay for cell viability, A375 cells. It is filed as cell-based. To be noted: Homo sapiens, A-375, 72 h. As for the experimental part: Cell lines (A375 ATCC No. CRL-1619, A2058 ATCC No. CRL-11147 and RKO ATCC No. CRL-2577, American Type Culture Collection (ATCC), Manassas Va.) once attaining ˜80% confluency were trypsinized, centrifuged and resuspended in fresh media. Cells (1000-2000/per well) were seeded in 96-well plate and incubated over-night at 37° C. in a 5% CO2 incubator. Compound dilutions were prepared in 100% DMSO followed by dilutions in the respective media. The cells were treated with NCEs for 72 h at 37° C. in 5% CO2 incubator. After 72 h, freshly prepared XTT (1 mg/ml)/PMS (25 μM) solution was added, incubated for 2 to 3 h at 37° C. and the absorbance was measured at 450 nm using an ELISA plate reader. Keeping DMSO control as 100%, the effect of the compound to inhibit the cell proliferation was calculated and the GI50 values were determined using sigmoidal dose response curve fit in GraphPad Prism® v5 software.

T1 sequence (P15056 416-766 V600E limits assumed): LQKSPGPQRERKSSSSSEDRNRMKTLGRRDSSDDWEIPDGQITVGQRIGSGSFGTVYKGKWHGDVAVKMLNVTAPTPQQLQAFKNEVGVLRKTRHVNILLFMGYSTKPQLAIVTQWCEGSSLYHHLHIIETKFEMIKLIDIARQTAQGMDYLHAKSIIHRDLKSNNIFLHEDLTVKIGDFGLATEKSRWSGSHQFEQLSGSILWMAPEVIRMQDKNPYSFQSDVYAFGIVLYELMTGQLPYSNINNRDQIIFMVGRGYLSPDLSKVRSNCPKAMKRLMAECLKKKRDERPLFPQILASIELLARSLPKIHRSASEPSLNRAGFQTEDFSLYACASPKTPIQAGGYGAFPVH

In the case of `COc1cc(-c2cccc(NS(=O)(=O)c3c(F)cccc3F)c2F)cc2c(N3CCOCC3)nc(-c3cnc(N)nc3)nc12` [Example 13, N-(3-(2-(2-aminopyrimidin-5-yl)-8-methoxy-4-morpholinoquinazolin-6-yl)-2-fluorophenyl)-2,6-difluorobenzenesulfonamide], the IC50 on B-RAFV600E lay within 1 to 100 nM; against mTOR kinase, 100 to 1000 nM; with pERK in A375 cells, 100 to 1000 nM; with A375 cells, 100 to 1000 nM.

In the case of `COc1cc(-c2cccc(NS(=O)(=O)c3cc(F)ccc3F)c2F)cc2c(N3CCOCC3)nc(-c3cnc(N)nc3)nc12` [Example 22, N-(3-(2-(2-aminopyrimidin-5-yl)-8-methoxy-4-morpholinoquinazolin-6-yl)-2-fluorophenyl)-2,5-difluorobenzenesulfonamide], the IC50 was 1 to 100 nM at B-RAFV600E, 100 to 1000 nM against mTOR kinase, 1 to 100 nM in the test with pERK in A375 cells and 100 to 1000 nM in the test on A375 cells.

On to `Nc1ncc(-c2nc(N3CCOCC3)c3cc(-c4cccc(NS(=O)(=O)CCCF)c4F)cc(N4CCCC4)c3n2)cn1` [Example 71, N-(3-(2-(2-aminopyrimidin-5-yl)-4-morphollno-8-(pyrrolidin-1-yl)quinazolin-6-yl)-2-fluorophenyl)-3-fluoropropane-1-sulfonamide], for which the IC50 at B-RAFV600E was 100 to 1000 nM; against mTOR kinase it was 1 to 100 nM; in the test with pERK in A375 cells it was 1 to 100 nM; in the test on A375 cells, 100 to 1000 nM.

Consider `COc1cc(-c2cccc(NS(=O)(=O)CCCF)c2F)cc2c(N3CCOC[C@@H]3C)nc(-c3cnc(N)nc3)nc12` [Example 45, (S)-N-(3-(2-(2-aminopyrimidin-5-yl)-8-methoxy-4-(3-methylmorpholino)quinazolin-6-yl)-2-fluorophenyl)-3-fluoropropane-1-sulfonamide], for which the IC50 at B-RAFV600E, on mTOR kinase, with pERK in A375 cells and with A375 cells was 100 to 1000 nM in each case.

Regarding `CCOc1cc(-c2cccc(NS(=O)(=O)CCCF)c2F)cc2c(N3CCOCC3)nc(-c3cnc(N)nc3)nc12` [Example 54, N-(3-(2-(2-aminopyrimidin-5-yl)-8-ethoxy-4-morpholinoquinazolin-6-yl)-2-fluorophenyl)-3-fluoropropane-1-sulfonamide], the IC50 at B-RAFV600E is 1 to 100 nM; at mTOR kinase, 100 to 1000 nM; in the test on pERK in A375 cells, 1 to 100 nM; with A375 cells, 100 to 1000 nM.

Regarding `COc1cc(-c2c(F)ccc(NS(=O)(=O)CCCF)c2F)cc2c(N3CCOCC3)nc(-c3cnc(N)nc3)nc12` [Example 82, N-(3-(2-(2-aminopyrimidin-5-yl)-8-methoxy-4-morpholinoquinazolin-6-yl)-2,4-difIuorophenyl)-3-fluoropropane-1-sulfonamide], the IC50 at B-RAFV600E was in the range of 1 to 100 nM; on mTOR kinase, 100 to 1000 nM; in the test with pERK in A375 cells, 1 to 100 nM; with A375 cells, 1 to 100 nM.

As to `CCCS(=O)(=O)Nc1cccc(-c2cc(OC)c3nc(-c4ccc(NC(=O)NC)cc4)nc(N4CCOCC4)c3c2)c1F` [Example 14, N-(2-fluoro-3-(8-methoxy-2-(4-(3-methylureido)phenyl)-4-morpholinoquinazolin-6-yl)phenyl)propane-1-sulfonamide], the IC50 at B-RAFV600E fell in the range of 100 to 1000 nM; against mTOR kinase, 1 to 100 nM; in the test on pERK in A375 cells it was 100 to 1000 nM; in the test with A375 cells, 100 to 1000 nM.

With `CCS(=O)(=O)Nc1cccc(-c2cc(OC)c3nc(-c4cnc(N)nc4)nc(N4CCOCC4)c3c2)c1F` [Example 21, N-(3-(2-(2-aminopyrimidin-5-yl)-8-methoxy-4-morpholinoquinazolin-6-yl)-2-fluorophenyl) \ethanesulfonamide], the IC50 at B-RAFV600E lay within 100 to 1000 nM; against mTOR kinase, 100 to 1000 nM; in the test with pERK in A375 cells it was 100 to 1000 nM; in the test with A375 cells, 1000 to 10000 nM.

On to `Nc1ccc(-c2nc(N3CCOCC3)c3cc(-c4cccc(NS(=O)(=O)CCCF)c4F)ccc3n2)cn1` [Example 46, N-(3-(2-(6-aminopyridin-3-yl)-4-morpholinoquinazolin-6-yl)-2-fluorophenyl)-3-fluoropropane-1-sulfonamide], for which the IC50 at B-RAFV600E was 1 to 100 nM; against mTOR kinase, 100 to 1000 nM; in the test with pERK in A375 cells it was 1 to 100 nM; in the test on A375 cells it was 100 to 1000 nM.

For the compound `COc1cc(-c2cccc(NS(=O)(=O)c3ccccc3F)c2F)cc2c(N3CCOCC3)nc(-c3cnc(N)nc3)nc12` [Example 47, N-(3-(2-(2-aminopyrimidin-5-yl)-8-methoxy-4-morpholinoquinazolin-6-yl)-2-fluorophenyl)-2-fluorobenzenesulfonamide], the IC50 was in the range of 1 to 100 nM at B-RAFV600E, 100 to 1000 nM on mTOR kinase, 100 to 1000 nM with pERK in A375 cells and 100 to 1000 nM with A375 cells.

For `COc1cc(-c2c(F)ccc(NS(=O)(=O)c3c(F)cccc3F)c2F)cc2c(N3CCOCC3)nc(-c3cnc(N)nc3)nc12` [Example 76, N-(3-(2-(2-aminopyrimidin-5-yl)-8-methoxy-4-morpholinoquinazolin-6-yl)-2,4-difluorophenyl)-2,6-difluorobenzenesulfonamide], the IC50 at B-RAFV600E was in the range of 1 to 100 nM; against mTOR kinase, 100 to 1000 nM; with pERK in A375 cells, 100 to 1000 nM; in the test on A375 cells it was 100 to 1000 nM.
